Measured values from US20230085307A1, “PYRIDAZINONE COMPOUND AND HERBICIDE” (NISSAN CHEMICAL CORPORATION, priority 2019, published 2023).

Columns and labels:
windgrass [1] = experiment: Test Example 4: herbicidal effect by soil treatment (Table 19, symbol L); assay type: in vivo, windgrass (Apera spica-venti)
Procedure, shortened: (§1)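 Scoring uses the grading scale of an earlier test, three weeks post-application. Treatment consists of spraying a diluted emulsion formulation across the surface of sterilized diluvial soil in which seeds are buried near 1.5 cm deep; boxes are kept in a greenhouse between 25° C. and 30° C.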

wild oat [2] = experiment: Test Example 5: herbicidal effect by foliage application, plastic box (Table 20, symbol I); assay type: in vivo, wild oat (Avena fatua); settings: foliage application, 80 g/ha, 3 weeks after application
Procedure, shortened: (§2)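 Post-emergence foliar test in sterilized diluvial soil. Compound applied as water-diluted emulsion at a predetermined rate to 14-day-old plants; evaluation at three weeks.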

blackgrass [3] = experiment: Test Example 5: herbicidal effect by foliage application, plastic box (Table 20, symbol J); assay type: in vivo, blackgrass (Alopecurus myosuroides); settings: foliage application, 80 g/ha, 3 weeks after application
Procedure, shortened: as §2

barnyard grass [4] = experiment: Test Example 3: herbicidal effect by foliage application, Wagner pot (Table 18, symbol H); assay type: in vivo, barnyard grass (Echinochloa crus-galli)
Procedure, shortened: (§3)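 Plants were sown in alluvial soil held under 0.1–0.5 cm standing water and grown 14 days in a greenhouse at 25–30 °C. An emulsifiable formulation, water-diluted to the set dose, was then sprayed onto the foliage, and effects were scored three weeks later using previously defined criteria.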

velvetleaf [5] = experiment: Test Example 4: herbicidal effect by soil treatment (Table 19, symbol M); assay type: in vivo, velvetleaf (Abutilon theophrasti)
Procedure, shortened: as §1

southern crabgrass [6] = experiment: Test Example 4: herbicidal effect by soil treatment (Table 19, symbol F); assay type: in vivo, southern crabgrass (Digitaria ciliaris)
Procedure, shortened: as §1

barnyard grass [7] = experiment: Test Example 5: herbicidal effect by foliage application, plastic box (Table 20, symbol H); assay type: in vivo, barnyard grass (Echinochloa crus-galli); settings: foliage application, 80 g/ha, 3 weeks after application
Procedure, shortened: as §2

oval-leafed pondweed = experiment: Test Example 1: herbicidal activity, application before weed generation under submerged conditions (Table 16, symbol C); assay type: in vivo, oval-leafed pondweed (Monochoria vaginalis)
Procedure, shortened: (§4)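 Emulsion formulation, water-diluted to set dose, was put onto the flooded surface (4 cm depth, alluvial soil) the same day weeds were sown and 2.5-leaf rice transplanted. After 3 weeks at 25-30 °C under glass, each species was rated 0 (≤5% kill) to 5 (≥90% kill).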

lambsquarters [8] = experiment: Test Example 5: herbicidal effect by foliage application, plastic box (Table 20, symbol O); assay type: in vivo, lambsquarters (Chenopodium album); settings: foliage application, 80 g/ha, 3 weeks after application
Procedure, shortened: as §2

Chinese sprangletop = experiment: Test Example 3: herbicidal effect by foliage application, Wagner pot (Table 18, symbol D); assay type: in vivo, chinese sprangletop (Leptochloa chinensis)
Procedure, shortened: as §3

wild oat [9] = experiment: Test Example 4: herbicidal effect by soil treatment (Table 19, symbol I); assay type: in vivo, wild oat (Avena fatua)
Procedure, shortened: as §1

lambsquarters [10] = experiment: Test Example 4: herbicidal effect by soil treatment (Table 19, symbol O); assay type: in vivo, lambsquarters (Chenopodium album)
Procedure, shortened: as §1

windgrass [11] = experiment: Test Example 5: herbicidal effect by foliage application, plastic box (Table 20, symbol L); assay type: in vivo, windgrass (Apera spica-venti); settings: foliage application, 80 g/ha, 3 weeks after application
Procedure, shortened: as §2

Italian ryegrass [12] = experiment: Test Example 4: herbicidal effect by soil treatment (Table 19, symbol K); assay type: in vivo, Italian ryegrass (Lolium multiflorum)
Procedure, shortened: as §1

chickweed = experiment: Test Example 4: herbicidal effect by soil treatment (Table 19, symbol P); assay type: in vivo, common chickweed (Stellaria media)
Procedure, shortened: as §1

persian speedwell [13] = experiment: Test Example 5: herbicidal effect by foliage application, plastic box (Table 20, symbol R); assay type: in vivo, Persian speedwell (Veronica persica); settings: foliage application, 80 g/ha, 3 weeks after application
Procedure, shortened: as §2

late watergrass = experiment: Test Example 1: herbicidal activity, application before weed generation under submerged conditions (Table 16, symbol A); assay type: in vivo, late watergrass (Echinochloa oryzicola)
Procedure, shortened: as §4

blackgrass [14] = experiment: Test Example 4: herbicidal effect by soil treatment (Table 19, symbol J); assay type: in vivo, blackgrass (Alopecurus myosuroides)
Procedure, shortened: as §1

redroot pigweed = experiment: Test Example 4: herbicidal effect by soil treatment (Table 19, symbol N); assay type: in vivo, redroot pigweed (Amaranthus retroflexus)
Procedure, shortened: as §1

rice flat sedge = experiment: Test Example 3: herbicidal effect by foliage application, Wagner pot (Table 18, symbol E); assay type: in vivo, rice flat sedge (Cyperus iria)
Procedure, shortened: as §3

Japanese bulrush = experiment: Test Example 1: herbicidal activity, application before weed generation under submerged conditions (Table 16, symbol B); assay type: in vivo, Japanese bulrush (Schoenoplectus juncoides)
Procedure, shortened: as §4

Italian ryegrass [15] = experiment: Test Example 5: herbicidal effect by foliage application, plastic box (Table 20, symbol K); assay type: in vivo, Italian ryegrass (Lolium multiflorum); settings: foliage application, 80 g/ha, 3 weeks after application
Procedure, shortened: as §2

barnyard grass [16] = experiment: Test Example 4: herbicidal effect by soil treatment (Table 19, symbol H); assay type: in vivo, barnyard grass (Echinochloa crus-galli)
Procedure, shortened: as §1

green foxtail [17] = experiment: Test Example 4: herbicidal effect by soil treatment (Table 19, symbol G); assay type: in vivo, green foxtail (Setaria viridis)
Procedure, shortened: as §1

velvetleaf [18] = experiment: Test Example 5: herbicidal effect by foliage application, plastic box (Table 20, symbol M); assay type: in vivo, velvetleaf (Abutilon theophrasti); settings: foliage application, 80 g/ha, 3 weeks after application
Procedure, shortened: as §2

persian speedwell [19] = experiment: Test Example 4: herbicidal effect by soil treatment (Table 19, symbol R); assay type: in vivo, Persian speedwell (Veronica persica)
Procedure, shortened: as §1

southern crabgrass [20] = experiment: Test Example 5: herbicidal effect by foliage application, plastic box (Table 20, symbol F); assay type: in vivo, southern crabgrass (Digitaria ciliaris); settings: foliage application, 80 g/ha, 3 weeks after application
Procedure, shortened: as §2

green foxtail [21] = experiment: Test Example 5: herbicidal effect by foliage application, plastic box (Table 20, symbol G); assay type: in vivo, green foxtail (Setaria viridis); settings: foliage application, 80 g/ha, 3 weeks after application
Procedure, shortened: as §2

[22] = amount of applied herbicide 320 g/ha

CC=CCOc1ccc(-c2sc3ccccc3c2-c2c(O)c(C)nn(C)c2=O)cc1 [1-211]
L: windgrass, herbicidal effect rating (windgrass [1]; AAH 80 g/ha): 0 (Herbicidal rate of 5% or less (almost no effect))
effect on wild oat (I) (wild oat [2]): 0 (Herbicidal rate of 5% or less (almost no effect))
effect on blackgrass (J) (blackgrass [3]): 2 (Herbicidal rate of 20% or more and less than 40%)
herbicidal effect on H (barnyard grass), rating 0-5 (barnyard grass [4]; 80 g/ha): 4 (Herbicidal rate of 70% or more and less than 90%)
M: velvetleaf, herbicidal effect rating (velvetleaf [5]; AAH 80 g/ha): 0 (Herbicidal rate of 5% or less (almost no effect))
F: southern crabgrass, herbicidal effect rating (southern crabgrass [6]; AAH 80 g/ha): 0 (Herbicidal rate of 5% or less (almost no effect))
effect on barnyard grass (H) (barnyard grass [7]): 3 (Herbicidal rate of 40% or more and less than 70%)
Herbicidal effect on C: oval-leafed pondweed (grade 0-5) (oval-leafed pondweed; 80 g/ha applied herbicide): 3 (Herbicidal rate of 40% or more and less than 70%)
effect on lambsquarters (O) (lambsquarters [8]): 5 (Herbicidal rate of 90% or more (almost completely withered))
herbicidal effect on D (Chinese sprangletop), rating 0-5 (Chinese sprangletop; 80 g/ha): 4 (Herbicidal rate of 70% or more and less than 90%)
I: wild oat, herbicidal effect rating (wild oat [9]; AAH 80 g/ha): 0 (Herbicidal rate of 5% or less (almost no effect))
O: lambsquarters, herbicidal effect rating (lambsquarters [10]; AAH 80 g/ha): 0 (Herbicidal rate of 5% or less (almost no effect))
effect on windgrass (L) (windgrass [11]): 0 (Herbicidal rate of 5% or less (almost no effect))
K: Italian ryegrass, herbicidal effect rating (Italian ryegrass [12]; AAH 80 g/ha): 0 (Herbicidal rate of 5% or less (almost no effect))
P: chickweed, herbicidal effect rating (chickweed; AAH 80 g/ha): 0 (Herbicidal rate of 5% or less (almost no effect))
effect on persian speedwell (R) (persian speedwell [13]): 5 (Herbicidal rate of 90% or more (almost completely withered))
Herbicidal effect on A: late watergrass (grade 0-5) (late watergrass; 80 g/ha applied herbicide): 5 (Herbicidal rate of 90% or more (almost completely withered))
J: blackgrass, herbicidal effect rating (blackgrass [14]; AAH 80 g/ha): 0 (Herbicidal rate of 5% or less (almost no effect))
N: redroot pigweed, herbicidal effect rating (redroot pigweed; AAH 80 g/ha): 3 (Herbicidal rate of 40% or more and less than 70%)
herbicidal effect on E (rice flat sedge), rating 0-5 (rice flat sedge; 80 g/ha): 4 (Herbicidal rate of 70% or more and less than 90%)
Herbicidal effect on B: Japanese bulrush (grade 0-5) (Japanese bulrush; 80 g/ha applied herbicide): 3 (Herbicidal rate of 40% or more and less than 70%)
effect on Italian ryegrass (K) (Italian ryegrass [15]): 3 (Herbicidal rate of 40% or more and less than 70%)
H: barnyard grass, herbicidal effect rating (barnyard grass [16]; AAH 80 g/ha): 0 (Herbicidal rate of 5% or less (almost no effect))
G: green foxtail, herbicidal effect rating (green foxtail [17]; AAH 80 g/ha): 0 (Herbicidal rate of 5% or less (almost no effect))
effect on velvetleaf (M) (velvetleaf [18]): 4 (Herbicidal rate of 70% or more and less than 90%)
R: persian speedwell, herbicidal effect rating (persian speedwell [19]; AAH 80 g/ha): 0 (Herbicidal rate of 5% or less (almost no effect))
effect on southern crabgrass (F) (southern crabgrass [20]): 3 (Herbicidal rate of 40% or more and less than 70%)
effect on green foxtail (G) (green foxtail [21]): 5 (Herbicidal rate of 90% or more (almost completely withered))

COc1ccc(-c2sc3ccc(F)cc3c2-c2c(O)c(C)nn(C)c2=O)cc1Cl [2-370]
herbicidal effect, L: windgrass (windgrass [1]; [22]): 0 (Herbicidal rate of 5% or less (almost no effect))
herbicidal effect on H: barnyard grass (barnyard grass [4]; [22]): 3 (Herbicidal rate of 40% or more and less than 70%)
herbicidal effect, M: velvetleaf (velvetleaf [5]; [22]): 1 (Herbicidal rate of 5% or more and less than 20%)
herbicidal effect, F: southern crabgrass (southern crabgrass [6]; [22]): 0 (Herbicidal rate of 5% or less (almost no effect))
Herbicidal effect on C: oval-leafed pondweed (grade 0-5) (oval-leafed pondweed; 320 g/ha applied herbicide): 0 (Herbicidal rate of 5% or less (almost no effect))
herbicidal effect on D: Chinese sprangletop (Chinese sprangletop; [22]): 2 (Herbicidal rate of 20% or more and less than 40%)
herbicidal effect, I: wild oat (wild oat [9]; [22]): 0 (Herbicidal rate of 5% or less (almost no effect))
herbicidal effect, O: lambsquarters (lambsquarters [10]; [22]): 4 (Herbicidal rate of 70% or more and less than 90%)
herbicidal effect, K: Italian ryegrass (Italian ryegrass [12]; [22]): 0 (Herbicidal rate of 5% or less (almost no effect))
herbicidal effect, P: chickweed (chickweed; [22]): 3 (Herbicidal rate of 40% or more and less than 70%)
Herbicidal effect on A: late watergrass (grade 0-5) (late watergrass; 320 g/ha applied herbicide): 3 (Herbicidal rate of 40% or more and less than 70%)
herbicidal effect, J: blackgrass (blackgrass [14]; [22]): 0 (Herbicidal rate of 5% or less (almost no effect))
herbicidal effect, N: redroot pigweed (redroot pigweed; [22]): 2 (Herbicidal rate of 20% or more and less than 40%)
herbicidal effect on E: rice flat sedge (rice flat sedge; [22]): 5 (Herbicidal rate of 90% or more (almost completely withered))
Herbicidal effect on B: Japanese bulrush (grade 0-5) (Japanese bulrush; 320 g/ha applied herbicide): 0 (Herbicidal rate of 5% or less (almost no effect))
herbicidal effect, H: barnyard grass (barnyard grass [16]; [22]): 0 (Herbicidal rate of 5% or less (almost no effect))
herbicidal effect, G: green foxtail (green foxtail [17]; [22]): 0 (Herbicidal rate of 5% or less (almost no effect))
herbicidal effect, R: persian speedwell (persian speedwell [19]; [22]): 4 (Herbicidal rate of 70% or more and less than 90%)
